According to patent publication US20230348358A1, “Serotonin Receptor Modulators” (Northeastern University, priority 2020, published 2023):
pEC50: −log10 of the molar value. “Also recorded” adds a separate entry of the source.

Columns and labels:
5HT1A = biological target: T1, 5HT1A (Homo sapiens, UniProt P08908); assay: 5HT1A function, Gαi cAMP signaling (CHO cells); type: cell-based
T1 sequence (P08908 1-422): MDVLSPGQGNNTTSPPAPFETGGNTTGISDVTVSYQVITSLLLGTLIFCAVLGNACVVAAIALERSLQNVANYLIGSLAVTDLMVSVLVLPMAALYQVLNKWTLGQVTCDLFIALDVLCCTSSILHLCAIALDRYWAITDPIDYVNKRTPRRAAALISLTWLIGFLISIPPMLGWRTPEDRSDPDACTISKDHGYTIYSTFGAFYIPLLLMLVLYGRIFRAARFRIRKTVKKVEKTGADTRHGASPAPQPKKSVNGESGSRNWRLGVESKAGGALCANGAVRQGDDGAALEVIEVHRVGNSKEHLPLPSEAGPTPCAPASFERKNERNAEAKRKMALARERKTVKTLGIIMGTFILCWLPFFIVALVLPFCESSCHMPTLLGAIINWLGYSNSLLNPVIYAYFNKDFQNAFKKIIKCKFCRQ

5HT2B receptors = biological target: T2, 5HT2B receptors (Homo sapiens, UniProt P41595); assay: 5HT2B functional assays; type: cell-based
T2 construct: host or cells: HEK293, transient
T2 sequence (P41595 whole entry): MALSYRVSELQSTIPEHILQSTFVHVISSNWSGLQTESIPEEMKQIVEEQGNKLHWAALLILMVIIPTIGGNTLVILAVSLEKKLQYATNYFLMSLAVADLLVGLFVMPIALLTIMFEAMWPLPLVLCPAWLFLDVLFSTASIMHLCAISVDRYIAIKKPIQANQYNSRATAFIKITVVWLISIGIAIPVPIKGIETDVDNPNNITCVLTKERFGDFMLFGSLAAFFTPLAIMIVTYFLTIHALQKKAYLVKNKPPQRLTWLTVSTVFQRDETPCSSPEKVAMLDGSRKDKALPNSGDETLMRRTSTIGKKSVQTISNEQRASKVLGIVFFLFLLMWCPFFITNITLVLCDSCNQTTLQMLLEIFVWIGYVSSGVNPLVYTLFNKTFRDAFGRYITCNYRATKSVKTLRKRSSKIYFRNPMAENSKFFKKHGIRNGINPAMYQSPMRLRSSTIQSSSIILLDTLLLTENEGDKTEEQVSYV

5HT2C receptors = biological target: T3, 5HT2C receptors (Homo sapiens, UniProt P28335); assay: 5HT2C functional assay; type: cell-based; conditions: read-out: EC50 at 5HT2C receptors (agonist)
T3 construct: host or cells: HEK293, transient
T3 sequence (P28335 33-458): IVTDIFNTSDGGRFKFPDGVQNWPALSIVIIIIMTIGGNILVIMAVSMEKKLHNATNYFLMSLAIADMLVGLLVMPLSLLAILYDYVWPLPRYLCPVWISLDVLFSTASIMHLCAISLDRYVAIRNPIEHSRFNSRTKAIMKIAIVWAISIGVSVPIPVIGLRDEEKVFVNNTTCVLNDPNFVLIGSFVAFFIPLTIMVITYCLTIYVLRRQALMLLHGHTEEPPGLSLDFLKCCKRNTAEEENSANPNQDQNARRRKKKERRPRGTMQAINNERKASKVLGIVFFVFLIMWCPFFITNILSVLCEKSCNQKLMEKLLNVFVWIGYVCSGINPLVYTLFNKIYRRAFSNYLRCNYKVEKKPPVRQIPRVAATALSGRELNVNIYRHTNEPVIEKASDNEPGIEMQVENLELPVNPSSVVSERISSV

5HT2A receptors = biological target: T4, 5HT2A receptors (Homo sapiens, UniProt P28223); assay: 5-HT2A function in HEK cells over-expressing the receptor; type: cell-based
T4 construct: host or cells: HEK293, transient
T4 sequence (P28223 whole entry): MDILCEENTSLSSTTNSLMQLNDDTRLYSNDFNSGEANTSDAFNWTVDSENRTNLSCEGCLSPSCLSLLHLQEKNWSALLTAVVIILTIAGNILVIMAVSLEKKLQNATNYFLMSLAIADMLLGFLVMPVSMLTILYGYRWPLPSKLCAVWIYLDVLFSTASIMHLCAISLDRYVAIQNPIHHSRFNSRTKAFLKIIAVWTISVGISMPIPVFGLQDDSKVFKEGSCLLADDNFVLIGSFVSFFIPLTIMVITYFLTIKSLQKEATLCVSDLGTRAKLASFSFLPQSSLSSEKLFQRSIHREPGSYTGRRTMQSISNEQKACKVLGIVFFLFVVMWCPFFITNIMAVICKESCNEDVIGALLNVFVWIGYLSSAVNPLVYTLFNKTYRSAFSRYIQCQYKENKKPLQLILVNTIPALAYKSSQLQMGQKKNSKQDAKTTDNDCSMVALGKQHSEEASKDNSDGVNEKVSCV

BL/6J mice = assay: Serotonin syndrome-like behavior observation; type: in vivo, mouse

CN(C)[C@H]1CCc2c(cccc2-c2ccccc2F)C1.Cl [(S)-5-FPT, (2S)-5-(2-fluorophenyl)-N,N-dimethyl-1,2,3,4-tetrahydronaphthalen-2-amine HCl]
Function at 5HT1A (5HT1A): Partial agonist
5HT2B functional activity (5HT2B receptors): devoid of 5HT2B activity up to 100 μM
pEC50 (5HT2C receptors): 6.64
Function at 5-HT2A receptors (5HT2A receptors): weak partial agonist activity
Flat Body (BL/6J mice; 5.6 mg/kg, mean (SEM) number of six one-minute sessions with the behavior (score/6)): 0(0)
Forepaw Tread (BL/6J mice; 5.6 mg/kg, mean (SEM) score/6): 0(0)
Head Weave (BL/6J mice; 5.6 mg/kg, mean (SEM) score/6): 0(0)
Moon Walk (BL/6J mice; 5.6 mg/kg, mean (SEM) score/6): 0.3(0.2)
Piloerection (BL/6J mice; 5.6 mg/kg, mean (SEM) score/6): 0(0)
Straub Tail (BL/6J mice; 5.6 mg/kg, mean (SEM) score/6): 0(0)
Tremor (BL/6J mice; 5.6 mg/kg, mean (SEM) score/6): 0(0)
Serotonin syndrome (BL/6J mice; mouse, in vivo, listed as (2S)-5-FPT, HCl): did not result in symptoms of serotonin syndrome; also recorded: does not produce serotonin syndrome-like symptoms
